These are literature values, as cited in PubChem BioAssay AID1259409 (Chemical Carcinogenesis Research Information System (CCRIS), 2018).

The subject of the series is rodent chemically induced tumor inhibition, incidence and multiplicity. Description: CCRIS tumor inhibitor studies. The following applies: Species: RAT, Strain/Sex: F344/MALE.

Consider `O=P(O)(O)OC1C(OP(=O)(O)O)C(OP(=O)(O)O)C(OP(=O)(O)O)C(OP(=O)(O)O)C1OP(=O)(O)O` (stereo not given), for which the “tumour outcome (control, treated, inhibition, significance)” value is, setting by setting: (Carcinogen: 2,2'-DIHYDROXY-DI-N-PROPYLNITROSAMINE [621-64-7], N-ETHYL-N-HYDROXYETHYLNITROSAMINE [13147-25-6], 3,2'-DIMETHYL-4-AMINOB, Carcinogen: 2,2'-DIHYDROXY-DI-N-PROPYLNITROSAMINE [621-64-7], N-ETHYL-N-HYDROXYETHYLNITROSAMINE [13147-25-6], 3,2'-DIMETHYL-4-AMINOB, Dose [Inhibitor]: 2% IN DIET FOR 32 WK BEGINNING 1 WK POST LAST CARCINOGEN DOSE (STUDY DURATION: 32 WK), Route [Inhibitor]: ORAL, Target Tissue: Type of Lesion: LIVER: ADENOMA, Dose [Carcinogen]: 1000 MG/KG BW DHPN IP 2X/3 WK, 1500 MG/KG BW EHEN IP 2X/3 WK, 75 MG/KG BW DMAB SC 3X/3 WK;, Dose [Carcinogen]: 1000 MG/KG BW DHPN IP 2X/3 WK, 1500 MG/KG BW EHEN IP 2X/3 WK, 75 MG/KG BW DMAB SC 3X/3 WK;, Promoter: NONE) 9/14 (64%), 5/12 (42%), 34%, p<0.01; (Carcinogen: 2,2'-DIHYDROXY-DI-N-PROPYLNITROSAMINE [621-64-7], N-ETHYL-N-HYDROXYETHYLNITROSAMINE [13147-25-6], 3,2'-DIMETHYL-4-AMINOB, Carcinogen: 2,2'-DIHYDROXY-DI-N-PROPYLNITROSAMINE [621-64-7], N-ETHYL-N-HYDROXYETHYLNITROSAMINE [13147-25-6], 3,2'-DIMETHYL-4-AMINOB, Dose [Inhibitor]: 2% IN DIET FOR 32 WK BEGINNING 1 WK POST LAST CARCINOGEN DOSE (STUDY DURATION: 32 WK), Route [Inhibitor]: ORAL, Target Tissue: Type of Lesion: LIVER: CARCINOMA, Dose [Carcinogen]: 1000 MG/KG BW DHPN IP 2X/3 WK, 1500 MG/KG BW EHEN IP 2X/3 WK, 75 MG/KG BW DMAB SC 3X/3 WK;, Dose [Carcinogen]: 1000 MG/KG BW DHPN IP 2X/3 WK, 1500 MG/KG BW EHEN IP 2X/3 WK, 75 MG/KG BW DMAB SC 3X/3 WK;, Promoter: NONE) 6/14 (43%), 1/12 (8%), 81%, not significant; (Carcinogen: 2,2'-DIHYDROXY-DI-N-PROPYLNITROSAMINE [621-64-7], N-ETHYL-N-HYDROXYETHYLNITROSAMINE [13147-25-6], 3,2'-DIMETHYL-4-AMINOB, Carcinogen: 2,2'-DIHYDROXY-DI-N-PROPYLNITROSAMINE [621-64-7], N-ETHYL-N-HYDROXYETHYLNITROSAMINE [13147-25-6], 3,2'-DIMETHYL-4-AMINOB, Dose [Inhibitor]: 2% IN DIET FOR 32 WK BEGINNING 1 WK POST LAST CARCINOGEN DOSE (STUDY DURATION: 32 WK), Route [Inhibitor]: ORAL, Target Tissue: Type of Lesion: LUNG: ADENOMA, Dose [Carcinogen]: 1000 MG/KG BW DHPN IP 2X/3 WK, 1500 MG/KG BW EHEN IP 2X/3 WK, 75 MG/KG BW DMAB SC 3X/3 WK;, Dose [Carcinogen]: 1000 MG/KG BW DHPN IP 2X/3 WK, 1500 MG/KG BW EHEN IP 2X/3 WK, 75 MG/KG BW DMAB SC 3X/3 WK;, Promoter: NONE) 7/14 (50%), 9/12 (75%), -50%, not significant; (Carcinogen: 2,2'-DIHYDROXY-DI-N-PROPYLNITROSAMINE [621-64-7], N-ETHYL-N-HYDROXYETHYLNITROSAMINE [13147-25-6], 3,2'-DIMETHYL-4-AMINOB, Carcinogen: 2,2'-DIHYDROXY-DI-N-PROPYLNITROSAMINE [621-64-7], N-ETHYL-N-HYDROXYETHYLNITROSAMINE [13147-25-6], 3,2'-DIMETHYL-4-AMINOB, Dose [Inhibitor]: 2% IN DIET FOR 32 WK BEGINNING 1 WK POST LAST CARCINOGEN DOSE (STUDY DURATION: 32 WK), Route [Inhibitor]: ORAL, Target Tissue: Type of Lesion: URINARY BLADDER: CARCINOMA, Dose [Carcinogen]: 1000 MG/KG BW DHPN IP 2X/3 WK, 1500 MG/KG BW EHEN IP 2X/3 WK, 75 MG/KG BW DMAB SC 3X/3 WK;, Dose [Carcinogen]: 1000 MG/KG BW DHPN IP 2X/3 WK, 1500 MG/KG BW EHEN IP 2X/3 WK, 75 MG/KG BW DMAB SC 3X/3 WK;, Promoter: NONE) 1/14 (7%), 4/12 (33%), -371%, not significant; (Carcinogen: 2,2'-DIHYDROXY-DI-N-PROPYLNITROSAMINE, 53609-64-6, N-ETHYL-N-HYDROXYETHYL- NITROSAMINE, 13147-25-6, 3,2'-DIMETHYL-4-, Carcinogen: 2,2'-DIHYDROXY-DI-N-PROPYLNITROSAMINE, 53609-64-6, N-ETHYL-N-HYDROXYETHYL- NITROSAMINE, 13147-25-6, 3,2'-DIMETHYL-4-, Dose [Inhibitor]: 0, 2% IN DIET BEGINNING 1 WK POST LAST CARCINOGEN DOSE AND CONTINUING FOR 32 WK (STUDY DURATION: 36 WK), Route [Inhibitor]: 0RAL, Target Tissue: Type of Lesion: URINARY BLADDER: CARCINOMA, Dose [Carcinogen]: 1000 MG/KG IP DHPN 2X, 1500 MG/KG GAV EHEN 2X AND 75 MG/KG SC DMAB 3X GIVEN OVER THE INITIAL 3 WK PERIOD AT 3-4 D INTERV, Promoter: NONE USED) 1/14 (7%), 2/12 (17%), -143%, not calculated; (Carcinogen: 2,2'-DIHYDROXY-DI-N-PROPYLNITROSAMINE, 53609-64-6, N-ETHYL-N-HYDROXYETHYL- NITROSAMINE, 13147-25-6, 3,2'-DIMETHYL-4-, Carcinogen: 2,2'-DIHYDROXY-DI-N-PROPYLNITROSAMINE, 53609-64-6, N-ETHYL-N-HYDROXYETHYL- NITROSAMINE, 13147-25-6, 3,2'-DIMETHYL-4-, Dose [Inhibitor]: 0, 2% IN DIET BEGINNING 1 WK POST LAST CARCINOGEN DOSE AND CONTINUING FOR 32 WK (STUDY DURATION: 36 WK), Route [Inhibitor]: ORAL, Target Tissue: Type of Lesion: LARGE INTESTINE: ADENOMA, Dose [Carcinogen]: 1000 MG/KG/ IP DHPN 2X, 1500 MG/KG GAV EHEN 2X AND 75 MG/KG SC DMAB 3X GIVEN OVER THE INITIAL 3 WK AT 3-4 D INTERVALS, Promoter: NONE USED) 7/14 (50%), 5/12 (42%), 16%, not calculated. Moreover, the “tumour outcome (control, treated, inhibition, significance)” value is 3/14 (21%), 4/12 (33%), -57%, not calculated (Carcinogen: 2,2'-DIHYDROXY-DI-N-PROPYLNITROSAMINE, 53609-64-6, N-ETHYL-N-HYDROXYETHYL- NITROSAMINE, 13147-25-6, 3,2'-DIMETHYL-4-, Carcinogen: 2,2'-DIHYDROXY-DI-N-PROPYLNITROSAMINE, 53609-64-6, N-ETHYL-N-HYDROXYETHYL- NITROSAMINE, 13147-25-6, 3,2'-DIMETHYL-4-, Dose [Inhibitor]: 0, 2% IN DIET BEGINNING 1 WK POST LAST CARCINOGEN DOSE AND CONTINUING FOR 32 WK (STUDY DURATION: 36 WK), Route [Inhibitor]: ORAL, Target Tissue: Type of Lesion: LARGE INTESTINE: CARCINOMA, Dose [Carcinogen]: 1000 MG/KG IP DHPN 2X, 1500 MG/KG GAV EHEN 2X AND 75 MG/KG SC DMAB 3X GIVEN OVER THE INITIAL 3 WK PERIOD AT 3-4 D INTERV, Promoter: NONE USED); 6/14 (43%), 1/12 (8%), 81%, not calculated (Carcinogen: 2,2'-DIHYDROXY-DI-N-PROPYLNITROSAMINE, 53609-64-6, N-ETHYL-N-HYDROXYETHYL- NITROSAMINE, 13147-25-6, 3,2'-DIMETHYL-4-, Carcinogen: 2,2'-DIHYDROXY-DI-N-PROPYLNITROSAMINE, 53609-64-6, N-ETHYL-N-HYDROXYETHYL- NITROSAMINE, 13147-25-6, 3,2'-DIMETHYL-4-, Dose [Inhibitor]: 0, 2% IN DIET BEGINNING 1 WK POST LAST CARCINOGEN DOSE AND CONTINUING FOR 32 WK (STUDY DURATION: 36 WK), Route [Inhibitor]: ORAL, Target Tissue: Type of Lesion: LIVER: HEPATOCELLULAR CARCINOMA, Dose [Carcinogen]: 1000 MG/KG IP DHPN 2X, 1500 MG/KG GAV EHEN 2X AND 75 MG/KG SC DMAB 3X GIVEN OVER THE INITIAL 3 WK AT 3-4 D INTERVALS, Promoter: NONE USED); 7/14 (50%), 9/12 (75%), -50%, not calculated (Carcinogen: 2,2'-DIHYDROXY-DI-N-PROPYLNITROSAMINE, 53609-64-6, N-ETHYL-N-HYDROXYETHYL- NITROSAMINE, 13147-25-6, 3,2'-DIMETHYL-4-, Carcinogen: 2,2'-DIHYDROXY-DI-N-PROPYLNITROSAMINE, 53609-64-6, N-ETHYL-N-HYDROXYETHYL- NITROSAMINE, 13147-25-6, 3,2'-DIMETHYL-4-, Dose [Inhibitor]: 0, 2% IN DIET BEGINNING 1 WK POST LAST CARCINOGEN DOSE AND CONTINUING FOR 32 WK (STUDY DURATION: 36 WK), Route [Inhibitor]: ORAL, Target Tissue: Type of Lesion: LUNG: ADENOMA, Dose [Carcinogen]: 1000 MG/KG IP DHPN 2X, 1500 MG/KG GAV EHEN 2X AND 75 MG/KG SC DMAB 3X GIVEN OVER THE INITIAL 3 WK PERIOD AT 3-4 D INTERV, Promoter: NONE USED). The outcome (Carcinogen: 2,2'-DIHYDROXY-DI-N-PROPYLNITROSAMINE [621-64-7], N-ETHYL-N-HYDROXYETHYLNITROSAMINE [13147-25-6], 3,2'-DIMETHYL-4-AMINOB, Carcinogen: 2,2'-DIHYDROXY-DI-N-PROPYLNITROSAMINE [621-64-7], N-ETHYL-N-HYDROXYETHYLNITROSAMINE [13147-25-6], 3,2'-DIMETHYL-4-AMINOB, Dose [Inhibitor]: 2% IN DIET FOR 32 WK BEGINNING 1 WK POST LAST CARCINOGEN DOSE (STUDY DURATION: 32 WK), Route [Inhibitor]: ORAL, Target Tissue: Type of Lesion: URINARY BLADDER: PAPILLOMA, Dose [Carcinogen]: 1000 MG/KG BW DHPN IP 2X/3 WK, 1500 MG/KG BW EHEN IP 2X/3 WK, 75 MG/KG BW DMAB SC 3X/3 WK;, Dose [Carcinogen]: 1000 MG/KG BW DHPN IP 2X/3 WK, 1500 MG/KG BW EHEN IP 2X/3 WK, 75 MG/KG BW DMAB SC 3X/3 WK;, Promoter: NONE) was 0/14 (0%), 6/12 (50%), -100%, p<0.01.
